From patent EP0162330B1, “Use of sterolins and spiroketalins in the production of medicaments for the treatment of psoriasis” (Roecar Holdings (Netherlands Antilles) N.V., priority 1984, dated 1985)

Experiments:
[1] = biological target: T1, 12-lipoxygenase of the platelets (Homo sapiens, UniProt P18054); assay: Influence upon lipoxygenase: thrombin-stimulated washed human platelets (method of Schroer et al); type: cell-based; conditions: washed human platelets stimulated with thrombin (0.6 iU/ml)
T1 construct: endogenous in cells; host or cells: washed human platelets
T1 sequence (P18054 1-663): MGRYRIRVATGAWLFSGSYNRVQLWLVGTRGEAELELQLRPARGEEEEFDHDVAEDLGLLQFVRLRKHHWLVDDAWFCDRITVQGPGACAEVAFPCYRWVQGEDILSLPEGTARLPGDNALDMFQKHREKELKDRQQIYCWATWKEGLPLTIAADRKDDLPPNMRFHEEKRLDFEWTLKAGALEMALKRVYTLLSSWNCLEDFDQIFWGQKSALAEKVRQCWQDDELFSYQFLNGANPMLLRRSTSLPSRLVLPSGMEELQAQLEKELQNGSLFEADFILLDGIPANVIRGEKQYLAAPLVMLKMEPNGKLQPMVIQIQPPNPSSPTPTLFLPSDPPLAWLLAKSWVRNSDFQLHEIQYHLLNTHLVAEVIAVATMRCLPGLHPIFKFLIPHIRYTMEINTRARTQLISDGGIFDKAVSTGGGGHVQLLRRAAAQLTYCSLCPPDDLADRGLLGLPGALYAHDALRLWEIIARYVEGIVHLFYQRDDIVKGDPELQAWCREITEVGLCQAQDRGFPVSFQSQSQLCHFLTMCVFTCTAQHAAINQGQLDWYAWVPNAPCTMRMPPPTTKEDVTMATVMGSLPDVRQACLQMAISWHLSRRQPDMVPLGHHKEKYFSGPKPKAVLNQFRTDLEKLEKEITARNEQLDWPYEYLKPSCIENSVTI
Protocol: The tests were performed according to the method devised by Schroer et al, Naunyn-Schmiedeberg's Arch. Pharmak. 313, 69 (1980). According to this method washed human platelets are stimulated with thrombin (0.6 iU/ml). Arachidonic acid released from the platelets upon stimulation is transformed by the 12-lipoxygenase of the platelets into 12-hydro-peroxy-eicosatetraenoic acid (12-HPETE).

[2] = system: antigen-induced SRS-A (leukotriene) mediated bronchoconstriction; assay: In vivo antigen-induced SRS-A (leukotriene) mediated bronchoconstriction (method of Anderson et al); set-up: species or system guinea pigs; conditions: n=8
Excerpt: The effect of β-Sitosterol-β-D-glucoside was investigated on antigen-induced SRS-A (leukotriene) mediated bronchoconstriction according to the method of Anderson et al (Br. J. Pharmacol. 78,67-74, 1983). Twenty-eight to thirty-three days after the single ovalbumine dose the guinea pigs were anaesthetised and surgically prepared for intravenous administration of the test compounds and measuring the ventilatory pressure. Prior to the antigen (ovalbumine) challenge the animals were adequately pretreated with indomethacin, pyrilamine and propanolol to eliminate the effect of other interfering mediators released during the anaphylactic reaction. The test substance was administered 1 minute before the ovalbumine challenge.
The vehicle (50% DMSO in water) served as a control. Phenindone was used as the standard reference substance.

12-lipoxygenase [3] = assay: In vitro lipoxygenase inhibition in leucocyte preparations, arachidonic acid products by radio thin-layer chromatography; type: cell-based, human
Protocol: (§1) Washed and resuspended platelets or leucocytes were incubated in one test with a saturated solution of β-sitosterol β-D-glucoside (23,5 mg/10ml ethanol) and in a second test with a 10 times oversaturated solution with addition of 0.25 µCi arachidonic acid for 5 minutes. The test mixtures were then acidified and extracted with ethyl acetate. Separation of the reaction products was performed by radio-thinlayer-chromatography.
(§2) The number of leukocytes in test 1 was 2000 and in test 2, 1600 and the number of platelets in the platelets test 1 was 140 000 and in test 2 it was 240 000.
(§3) After incubation with the test substance a significant inhibition of the lipoxygenase products can be shown when using platelets leading to a near complete synthesis inhibition and accumulation of non-metabolized arachidonic acid. As far as leucocytes are concerned, there is a dosage-dependant inhibitory effect of the lipoxygenase whereby the changes are mainly based on 12-hydroxyeicoscatetraenoic acid (12-HETE) and 12-HPETE while lesser changes are observed for HHT.

12-lipoxygenase [4] = biological target: T2, 12-lipoxygenase (Homo sapiens, UniProt P18054); assay: In vitro lipoxygenase inhibition in platelets, arachidonic acid products by radio thin-layer chromatography; type: cell-based; conditions: 120' saturated solution
T2 construct: endogenous in cells; host or cells: washed human platelets
T2 sequence (P18054 1-663): T1 sequence (P18054 1-663)
Protocol: as §1, §2, §3

[5] = 10 mg/kg i.v., 1 minute after challenge

## CCCCCC#CCC#CCC#CCC#CCCCC(=O)O [ETYA, 5,8,11,14-eicosatetraynoic acid, reference compound]
[1]; 10 µM/ml
  inhibition at 10 µM: 97%

## O=C1CCN(c2ccccc2)N1 [Phenidone, reference compound]
[2]; [5]
  MEAN CHANGE (AS % OF MAX ±S.E.M.) IN VENTILATION PRESSURE AFTER OVALBUMIN ADMINISTRATION: 3.1 ±1.0 % OF MAX

## CC[C@H](CC[C@@H](C)[C@H]1CC[C@H]2[C@@H]3CC=C4C[C@@H](O[C@@H]5O[C@H](CO)[C@@H](O)[C@H](O)[C@H]5O)CC[C@]4(C)[C@H]3CC[C@]12C)C(C)C [β-Sitosterol- β-D-glucoside, β-sitosterol β-D-glucoside]
12-lipoxygenase [3]; test 1, leukocytes (2000), 30' oversaturated (10 times) solution, normal 50.2
  12 HETE 12 HPETE in %: 12.4%
12-lipoxygenase [3]; test 1, leukocytes (2000), 30' saturated solution (23,5 mg/10ml ethanol), normal 50.2
  12 HETE 12 HPETE in %: 35.9%
12-lipoxygenase [3]; test 1, leukocytes (2000), 120' saturated solution, normal 50.2
  12 HETE 12 HPETE in %: 13.4%
12-lipoxygenase [3]; test 2, leukocytes (1600), 30' oversaturated (10 times) solution, normal 48.0
  12 HETE 12 HPETE in %: 22.7%
12-lipoxygenase [3]; test 2, leukocytes (1600), 30' saturated solution, normal 48.0
  12 HETE 12 HPETE in %: 37.0%
12-lipoxygenase [3]; test 2, leukocytes (1600), 120' saturated solution, normal 48.0
  12 HETE 12 HPETE in %: 2.7%
12-lipoxygenase [4]; test 1, platelets (140 000), normal 39.8
  12 HETE 12 HPETE in %: 3.8%
12-lipoxygenase [4]; test 2, platelets (240 000), normal 35.0
  12 HETE 12 HPETE in %: 11.9%
[2]; 1 mg/kg i.v., 1 minute after challenge
  MEAN CHANGE (AS % OF MAX ±S.E.M.) IN VENTILATION PRESSURE AFTER OVALBUMIN ADMINISTRATION: 5.8 ±4.5 % OF MAX
[2]; [5]
  MEAN CHANGE (AS % OF MAX ±S.E.M.) IN VENTILATION PRESSURE AFTER OVALBUMIN ADMINISTRATION: 1.8 ±2.8 % OF MAX
[2]; 10 mg/kg i.v., 2 minutes after challenge
  MEAN CHANGE (AS % OF MAX ±S.E.M.) IN VENTILATION PRESSURE AFTER OVALBUMIN ADMINISTRATION: 31.0 ±9.8 % OF MAX

## Diosgeninglucoside
[1]; 5 µM/ml
  inhibition: 13%
[1]; 10 µM/ml
  inhibition: 31%
[1]; 50 uM/ml
  inhibition: 60%
